Results on 27 molecules are retold here after patent US6977262B2, “Dihydropyrazolopyridine compounds and pharmaceutical use thereof” (Mitsubishi Pharma Corporation, priority 2001, dated 2005).

Structures can show the parent of a compound that is named as a salt. Some results are limits rather than exact numbers.

`CCCC1=C(C#N)C(c2ccccc2Cl)c2c(n[nH]c2CCC)N1` (stereo not drawn) [Example 302, 4-(2-Chlorophenyl)-5-cyano-4,7-dihydro-3,6-dipropyl-2H-pyrazolo[3,4-b]pyridine] came in with a melting point of 237 °C. In turn, `CCCC1=C([N+](=O)[O-])C(c2ccccc2Br)c2c[nH]nc2N1` (stereo not drawn) [Example 118, 4-(2-Bromophenyl)-4,7-dihydro-5-nitro-6-propyl-2H-pyrazolo[3,4-b]pyridine] registered a melting point of 226 °C. Next, `CC(=O)CC1=C(C#N)C(c2cccc3nonc23)c2c[nH]nc2N1` (stereo not drawn) [Example 1061, 6-Acetylmethyl-4-(2,1,3-benzoxadiazol-4-yl)-5-cyano-4,7-dihydro-2H-pyrazolo[3,4-b]pyridine]: 200 °C. Consider `CCCC1=C([N+](=O)[O-])C(c2ccccc2Cl)c2c[nH]nc2N1` (stereo not drawn) [Example 93, 4-(2-Chlorophenyl)-4,7-dihydro-5-nitro-6-propyl-2H-pyrazolo[3,4-b]pyridine], for which the melting point was 228 °C.

Take `CN1CCC(C2=C(C#N)C(c3ccccc3Cl)c3c[nH]nc3N2)CC1` (stereo not drawn) (as salt: trifluoroacetate) [Example 1056, 4-(2-Chlorophenyl)-5-cyano-4,7-dihydro-6-(1-methylpiperidin-4-yl)-2H-pyrazolo[3,4-b]pyridine]: the melting point was more than 270 °C. Next, `CCCC1=C(C#N)C(c2ccccc2Cl)c2c[nH]nc2N1C` (stereo not drawn) [Example 346, 4-(2-Chlorophenyl)-5-cyano-7-methyl-6-propyl-4,7-dihydro-2H-pyrazolo[3,4-b]pyridine]: 170 to 171 °C; `CCCC1=C(C#N)C(c2ccccc2SC)c2c[nH]nc2N1` (stereo not drawn) [Example 130, 5-Cyano-4,7-dihydro-4-(2-methylthiophenyl)-6-propyl-2H-pyrazolo[3,4-b]pyridine]: 216 °C. The value for `CCCC1=C(C(=O)OCC)C(c2cccc3nonc23)c2c[nH]nc2N1` (single isomer, unassigned; (+)) [Example 116, (+)Ethyl 4-(2,1,3-benzoxadiazol-4-yl)-4,7-dihydro-6-propyl-2H-pyrazolo[3,4-b]pyridine-5-carboxylate] was 159 °C; that for `N#CC1=C(c2ccc(Cl)s2)Nc2n[nH]cc2C1c1cccc2nonc12` (stereo not drawn) [Example 298, 4-(2,1,3-Benzoxadiazol-4-yl)-6-(2-chlorothiophen-5-yl)-5-cyano-4,7-dihydro-2H-pyrazolo[3,4-b]pyridine] was 210 °C; that for `CCCCC1=C(C#N)C(c2cccc3nonc23)c2c[nH]nc2N1` (stereo not drawn) [Example 177, 4-(2,1,3-Benzoxadiazol-4-yl)-6-butyl-5-cyano-4,7-dihydro-2H-pyrazolo[3,4-b]pyridine] was 200 °C. The value for `CCCC1=C(C#N)C(c2ccccc2Cl)c2c(n[nH]c2-c2cccc(OC)c2)N1` (stereo not drawn) [Example 297, 4-(2-Chlorophenyl)-5-cyano-4,7-dihydro-3-(3-methoxyphenyl)-6-propyl-2H-pyrazolo[3,4-b]pyridine] was 239 °C; that for `COc1ccccc1C1C(C#N)=C(c2ccccc2)Nc2n[nH]cc21` (stereo not drawn) [Example 150, 5-Cyano-4,7-dihydro-4-(2-methoxyphenyl)-6-phenyl-2H-pyrazolo[3,4-b]pyridine] was 206 °C; that for `CC1=C(C(=O)NN)C(c2ccccc2Cl)c2c[nH]nc2N1` (stereo not drawn) [Example 9, 4-(2-Chlorophenyl)-5-hydrazinocarbonyl-4,7-dihydro-6-methyl-2H-pyrazolo[3,4-b]pyridine] was 220 °C.

The molecule `N#CC1=C(c2cccs2)Nc2n[nH]cc2C1c1cccc2nsnc12` (stereo not drawn) [Example 245, 4-(2,1,3-Benzothiadiazol-4-yl)-5-cyano-4,7-dihydro-6-(thiophen-2-yl)-2H-pyrazolo[3,4-b]pyridine] showed a melting point of 254 °C. The molecule `CCCC1=C(C(=O)OCC)C(c2ccccc2SC)c2c[nH]nc2N1` (stereo not drawn) [Example 39, Ethyl 4,7-dihydro-4-(2-methylthiophenyl)-6-propyl-2H-pyrazolo[3,4-b]pyridine-5-carboxylate] had a melting point of 198 °C. The value for `CC(=O)C1=C(C#N)C(c2ccccc2Cl)c2c[nH]nc2N1` (stereo not drawn) [Example 1080, 6-Acetyl-4-(2-chlorophenyl)-5-cyano-4,7-dihydro-2H-pyrazolo[3,4-b]pyridine] was 225 to 228 °C (dec.); that for `CN1CCOC(C2=C(C#N)C(c3cccc(C#N)c3Br)c3c[nH]nc3N2)C1` (stereo not drawn) (as salt: trifluoroacetate) [Example 1046, 4-(2-Bromo-3-cyanophenyl)-5-cyano-4,7-dihydro-6-(4-methylmorpholin-2-yl)-2H-pyrazolo[3,4-b]pyridine] was 180 °C; that for `CCCC1=C(C(=O)OCC)C(c2cccc(F)c2F)c2c[nH]nc2N1` (stereo not drawn) [Example 43, Ethyl 4-(2,3-difluorophenyl)-4,7-dihydro-6-propyl-2H-pyrazolo[3,4-b]pyridine-5-carboxylate] was 207 °C. The value for `CCCC1=C(C#N)C(c2cccc(C#N)c2Cl)c2c[nH]nc2N1` (stereo not drawn) [Example 184, 4-(2-Chloro-3-cyanophenyl)-5-cyano-4,7-dihydro-6-propyl-2H-pyrazolo[3,4-b]pyridine] was more than 250 °C.

Take `CCCC1=C(C(=O)OCC)C(c2ccccc2Cl)c2cn(C(=O)OC)nc2N1` (stereo not drawn) [Example 207, Ethyl 4-(2-chlorophenyl)-4,7-dihydro-2-methoxycarbonyl-6-propyl-2H-pyrazolo[3,4-b]pyridine-5-carboxylate]: the melting point lay in the range of 141 to 143 °C. `CCCC1=C(C#N)C(c2ccccc2Cl)c2c(n[nH]c2-c2ccc(OC)cc2)N1` (stereo not drawn) [Example 290, 4-(2-Chlorophenyl)-5-cyano-4,7-dihydro-3-(4-methoxyphenyl)-6-propyl-2H-pyrazolo[3,4-b]pyridine] gave a melting point of 284 °C. `CCCC1=C(C(=O)OCC)C(c2ccccc2C)c2c[nH]nc2N1` (stereo not drawn) [Example 30, Ethyl 4,7-dihydro-4-(2-methylphenyl)-6-propyl-2H-pyrazolo[3,4-b]pyridine-5-carboxylate] returned a melting point of 178 °C. `CCCC1=C(C#N)C(c2ccccc2Cl)c2c(n[nH]c2C2CCCC2)N1` (stereo not drawn) [Example 314, 4-(2-Chlorophenyl)-5-cyano-3-cyclopentyl-4,7-dihydro-6-propyl-2H-pyrazolo[3,4-b]pyridine] returned a melting point of more than 270 °C.

Regarding `N#CC1=C(C2CCCCCC2)Nc2n[nH]cc2C1c1cccc2nonc12` (stereo not drawn) [Example 324, 4-(2,1,3-Benzoxadiazol-4-yl)-5-cyano-6-cycloheptyl-4,7-dihydro-2H-pyrazolo[3,4-b]pyridine], the melting point was 228 °C. Next, `CC(C)C1=C(C#N)C(c2cccc(C#N)c2Br)c2c[nH]nc2N1` (stereo not drawn) [Example 260, 4-(2-Bromo-3-cyanophenyl)-5-cyano-4,7-dihydro-6-isopropyl-2H-pyrazolo[3,4-b]pyridine]: more than 250 °C; `N#CC1=C(C2CCC2)Nc2n[nH]cc2C1c1ccccc1Cl` (stereo not drawn) [Example 313, 4-(2-Chlorophenyl)-5-cyano-6-cyclobutyl-4,7-dihydro-2H-pyrazolo[3,4-b]pyridine]: 188 °C; `COc1cccc(C2=C(C#N)C(c3ccccc3OC)c3c[nH]nc3N2)c1` (stereo not drawn) [Example 152, 5-Cyano-4,7-dihydro-4-(2-methoxyphenyl)-6-(3-methoxyphenyl)-2H-pyrazolo[3,4-b]pyridine]: 192 °C.

In general, melting point refers to the temperature of the solid-liquid transition.
